Assay results: patent publication US9999617B2, “Compositions for treating bacterial infections” (TRUSTEES OF DARTMOUTH COLLEGE, priority 2009, dated 2018)
In brackets after ≈: the same amount, converted by molar mass.

These molecules were tested on S. aureus (assay: Minimum Inhibitory Concentration (MIC), inhibition of growth of S. aureus in vitro). Settings: Staphylococcus aureus.
Type: cell-based
Experimental: Once the compounds of the present invention were identified through the MazEF screening assay described above, the activity of the compounds to inhibit growth of S. aureus in vitro was tested using the standard method of determining Minimum Inhibitory Concentrations (MICs). Such methods are well known to those of skill in the art since determining MIC doses is a standard assay in development of antibiotic drugs. For example, MIC values can be determined according to the Clinical and Laboratory Standards Institute guidelines. In Table 1, the MIC values are presented for each of the ten compounds identified through the MazEF screening assay as having potential for antibiotic activity in S. aureus.
For `Cc1ccc(Nc2nc3nonc3nc2N)c(C)c1` [Compound 4], the MIC was 12.5 µg/mL (≈ 48.8 µM). Work on `O=C1c2ccccc2-c2onc3ccc(Cl)c1c23` [Compound 5] yielded an MIC of 6.25 µg/mL (≈ 24.4 µM).

Same assay, conditions: Staphylococcus aureus; S. aureus growth in vitro; read-out: MIC
Work on `CN1C(=O)/C(=C/c2cc(Br)cc([N+](=O)[O-])c2O)SC1=S` [Compound 2] yielded an MIC of 12.5 µg/mL (≈ 33.3 µM). Work on `COc1ccc(/C=C2\SC(=O)NC2=S)cc1` [Compound 6] yielded an MIC of 0.78 µg/mL (≈ 3.1 µM). With `COc1cc(/C=C2/S/C(=N\S(=O)(=O)c3ccccc3)NC2=O)ccc1O` [Compound 7] the MIC was 100 µg/mL (≈ 256 µM). For `CCN1CCc2c(sc(NC(=O)Nc3ccc(Cl)cc3)c2C(N)=O)C1` [Compound 9], the MIC was 100 µg/mL (≈ 264 µM).
